Entries after “also recorded” stand apart in the source; their conditions may differ.
How the values were obtained:
isolated rat aorta = assay: In vitro induction of tolerance to NO releasing compounds (vasorelaxation of pre-exposed aortic rings, incl. cross-tolerance); format: cell-based; settings: for tolerance induction after pre-treatment with the same compound: rat aorta pre-treated with epinephrine and then 0.44 mM of the compound
Method: Aortic rings were prepared as described hereinabove, and were exposed to 0.44 mM GTN (vehicle was water:ethanol:propyleneglycol at proportional ratio of 1:1:1) for 1 hour before CCRC construction, to thereby induce tolerance to nitroglycerine. At the end of the tolerance induction period, rings were thrice washed with the path buffer (Krebs-bicrbonate) every 15 minutes for the following hour and then CCRC for vasorelaxation on GTN-induced tolerance rings were constructed for GTN (pretreated versus untreated rings, FIG. 15), in order to verify the ability to induce and measure GTN tolerance induction in vitro
Attempted induction of tolerance to the NO-donating compounds of the present invention was performed under the same conditions as for GTN. Thus, in an exemplary experiment, rings were exposed to 0.44 mM solution of Pet-3 in the attempt to induce tolerance for Pet-3. CCRC were then measured for the vasorelaxing effect of Pet-3 on a group of rings which were pre-exposed to Pet-3 as to induce tolerance to Pet-3, and for an untreated control group. The above protocol was repeated with Pet-2, Pet-7, Pet-8, Pet-12, Pet-24, Pet-43, Pet-149 and Pet-152.
Cross-tolerance studies were conducted using the same technique described above for measuring vasorelaxation of aortic rings from rats. Two groups of aortic rings samples were pre-treated with GTN, then one group was measured for vasorelaxation by GTN and the second group for vasorelaxation by Pet-12, an exemplary NO-donor according to the present invention. For the opposite cross-tolerance studies, two groups of aortic rings samples were pre-treated with Pet-12, then one group was measured for vasorelaxation by GTN and the second group for vasorelaxation by Pet-12.

[1] = test system: anesthetized hypertensive Sprague-Dawley male rats; assay: Hypotensive effects: mean arterial pressure after iv bolus in phenylephrine-treated rats; format: in vivo, rat
Source text: These techniques were also used to detect tolerance induction by the NO-donors of the present invention and by GTN. For c-GMP levels and tolerance development, the rat's thoracic aorta was isolated after exposure to the tested compound in vivo, and measured as described above in the in vitro assays.
Mean arterial pressure (MAP) was monitored and determined during bolus infusion of Pet-2, Pet-3, Pet-7, Pet-8, Pet-12 and Pet-13. Briefly, polyethylene catheters (PE50) were inserted into the carotid artery and into the jugular vein of anesthetized hypertensive Sprague-Dawley male rats (200-300 grams). A blood pressure recorder was placed within the carotid artery. Phenylephrine (0.1 mg) was then injected and the mean arterial blood pressure (MABP) was monitored continuously until a stable baseline was reached. The hypotensive effects of intravenous (iv) bolus doses (0.1 mg of each tested compound) administered intravenously at the jugular vein in minimal volume of vehicle (0.2 ml per dose) were evaluated. Five minutes were allowed between each dose, during which the maximal decrease in MAP was recorded and a dose-response graph comparing the hypotensive effect of the compounds was constructed.

[2] = test system: cGMP in thoracic aorta of rats treated in vivo; assay: Induction of in vivo nitrate tolerance (16 hour infusion, then cGMP in isolated aorta); set-up: species or system rat; settings: rats infused in vivo 16 hours, aorta re-exposed to the compound
Method: Male Sprague Dawley rats (220 to 250 grams) were housed under constant temperature and humidity conditions. Light was maintained at a 12/12 light dark cycle. Except for 12 hours before the experiment, when food fasting was initiated, all rats had free access to standard rat pellet diet and tap water. The animals were anesthetized by intraperitoneal injection of ketamine and xylazine combination (50 and 10 milligram per kilogram, respectively). […] The catheters were filled with normal saline solution containing 1000 IU/ml of heparin and plugged with a metal pin. Catheters were externalized to the back of the neck region and secured by a polyester felt disk.
After implantation, the rats were individually housed until they regained their preoperative weight and appeared healthy (3 to 4 days post-operation). At this time point (day 0), an osmotic mini-pump (Alza Corp., Palo Alto, Calif.) delivering constant volume (10 μl/hour) of vehicle or drug was connected to one of the intravenous catheters.
For inducing tolerance to the tested NO-donor according to the present invention, the animals received 200 μg/hour of the tested compound for 16 hours (short-term-induced tolerance). A similar number of animals were processed by the same surgical procedure and received the vehicle alone (10 μl/hour of a solution consisting of 30% ethanol and 30% propylene glycol in sterile distilled water for injection).
At the end of the infusion periods used for the development of tolerance (16 hour), the rats were anesthetized as described above, the two catheters were externalized and the delivering catheters were disconnected from the mini-pump. The abdomen was opened by midline incision and the thoracic aorta were isolated, washed and cleaned from the surrounding tissues. Strips of the treated aortas were pooled in chambers containing Krebs-Hanseliet buffer (10 ml), and exposed to 1 μM of the tested NO-donor (final concentration) for 120 seconds. The tissues were quickly collected and frozen in liquid nitrogen for cGMP measurement, described hereinabove.

[3] = test system: c-GMP in slices of thoracic aorta of rats; assay: Cyclic-GMP measurement in aortic rat tissue (radioimmunoassay); format: cell-based; settings: for cGMP Post-infusion: rat aorta, post-infusion (repeated treatment)
Method: GTN (10^−6 M) was added to the chamber and, 1 minute after exposure to the drug, rings (usually 3-5) were taken, wrapped with aluminum foil and immediately frozen in liquid nitrogen for storage. Control sample group was treated with the vehicle solution only. At the time of analysis, rings were thawed, blotted over a dry gauzed and weighted. A known weight of tissue was homogenized in 2 ml ice-cold modified Hank's balanced salt solution containing (in gram/liter) NaCl 8; KCl 0.4; glucose 1; KH2PO4 0.06; Na2HPO4 0.047; Phenol red 0.017 and further containing 25 mM EDTA (disodium salt). The homogenate was centrifuged at 4000 g (force units) for 10 minutes at 2-4° C. and the supernatant was thereafter transferred into fresh pre-cooled test tube containing 1 ml of acetonitrile. The tubes were vortex mixed for a few seconds and subsequently centrifuged at 4000 g for 5 minutes at 2-4° C., to remove the precipitated protein. Each supernatant was transferred into a clean test tube and evaporated to dryness under a stream of nitrogen at 55° C. The dry residue was reconstituted with 10 volumes of Tris-EDTA buffer pH 7.5 (0.05 M Tris containing 4 mM EDTA). Aliquots of 100 μl of the reconstituted solution in duplicate were used for c-GMP measurements using Amersham RIA kit, as is described in Haj-Yehia & Benet [Pharmacology, 1995, 273, 1, pp. 94-100]. Standard curves were plotted with six concentrations (0, 0.5, 1, 2, 4 and 8 pmoles of c-GMP per tube).
The NO-tolerance effect of GTN and NO-donor compounds according to the present invention was measured by following the production of c-GMP in slices of thoracic aorta of rats. Thus, the production of c-GMP was measured as described in the methods section above for the reference NO-donor compound GTN, and for the NO-donors of the present invention Pet-2, Pet-3, Pet-7, Pet-8, Pet-10, Pet-12, Pet-24, Pet-59, Pet-147, Pet-149, Pet-152, Pet-154 and Pet-155.

Compound	tolerance induction after pre-treatment with the same compound (isolated rat aorta)	effect on MAP following successive administrations ([1]; iv bolus doses, rats)	tolerance in vivo: cGMP level in aorta following repeated treatment [2]	cGMP Post-infusion [3]	c-GMP level following a repeated treatment ([3]; slices of thoracic aorta of rats)	vasorelaxation in rings pre-treated with GTN (cross-tolerance) (isolated rat aorta; rat aorta pre-treated with epinephrine and then with GTN)	vasorelaxation in rings pre-treated with Pet-12 (cross-tolerance) (isolated rat aorta; rat aorta pre-treated with epinephrine and then with Pet-12)	hypotensive / vasorelaxation effect on heightened mean arterial blood pressure ([1]; rats pre-treated in vivo with phenylephrine, iv bolus 10-100 micrograms)
O=[N+]([O-])OCC(CO[N+](=O)[O-])O[N+](=O)[O-] [GTN, glyceryl trinitrate, reference compound]	tolerance induced	attenuation	tolerance inducing effect; also recorded: decreased	45 ± 12^¥ pmol/g tissue	significantly reduced			
Cc1nc(-c2cccnc2)sc1CCO[N+](=O)[O-] [Pet-12, 3-[4-Methyl-5-(2-nitrooxy-ethyl)-thiazole-2-yl]-pyridine]	absence of tolerance induction		absence of tolerance induction; also recorded: absence of tolerance effect; also recorded: lack of tolerance induction	112 ± 12 pmol/g tissue		absence of tolerance induction effect; also recorded: no effect on the vasorelaxation capacity	absence of tolerance induction effect; also recorded: does not evoke tolerance to itself not to GTN	vasorelaxation effect
